Measurements published in the supplement of paper PMC4862054.

Key:
Conditions in all cases: incubation time: 72 h
[1] = tested on: HDQ-P1; assay: normalised response (% of control), CellTiter-Glo; higher = more viable cells (100 = DMSO, 0 = benzethonium chloride kill control)
How it was run: (§1)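 Breast cancer cell lines were exposed for 72 h in 384-well plates to compound at 5 concentrations, 10-fold apart, covering a 10,000-fold range fixed for each compound. Plates were read for CellTox Green fluorescence and CellTiter-Glo luminescence and normalised to 0.1 % DMSO (100) and a positive kill control (0). Each value is the normalised signal at one concentration of the series.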

[2] = tested on: MFM-223; assay: as above
How it was run: as §1

[3] = tested on: DU-4475; assay: as above
How it was run: as §1

[4] = tested on: SK-BR-3; assay: as above
How it was run: as §1

[5] = tested on: CAL-85-1; assay: as above
How it was run: as §1

[6] = tested on: CAL-120; assay: as above
How it was run: as §1

[7] = tested on: Hs578T; assay: as above
How it was run: as §1

[8] = tested on: BT-549; assay: as above
How it was run: as §1

[9] = tested on: MDA-MB-453; assay: as above
How it was run: as §1

[10] = tested on: HCC1143; assay: as above
How it was run: as §1

[11] = tested on: MDA-MB-468; assay: as above
How it was run: as §1

[12] = tested on: HCC1937; assay: as above
How it was run: as §1

[13] = tested on: CAL-148; assay: as above
How it was run: as §1

[14] = tested on: MCF-10A; assay: as above
How it was run: as §1

[15] = tested on: MDA-MB-436; assay: as above
How it was run: as §1

[16] = tested on: MDA-MB-231; assay: as above
How it was run: as §1

[17] = tested on: CAL-51; assay: as above
How it was run: as §1

[18] = tested on: BT-474; assay: as above
How it was run: as §1

[19] = tested on: HCC1599; assay: as above
How it was run: as §1

[20] = tested on: HDQ-P1; assay: normalised response (% of control), CellTox Green; higher = less cell death (100 = DMSO, 0 = benzethonium chloride kill control)
How it was run: as §1

[21] = tested on: MFM-223; assay: as above
How it was run: as §1

[22] = tested on: DU-4475; assay: as above
How it was run: as §1

[23] = tested on: CAL-85-1; assay: as above
How it was run: as §1

[24] = tested on: CAL-120; assay: as above
How it was run: as §1

[25] = tested on: Hs578T; assay: as above
How it was run: as §1

[26] = tested on: BT-549; assay: as above
How it was run: as §1

[27] = tested on: MDA-MB-453; assay: as above
How it was run: as §1

[28] = tested on: HCC1143; assay: as above
How it was run: as §1

[29] = tested on: MDA-MB-468; assay: as above
How it was run: as §1

[30] = tested on: HCC1937; assay: as above
How it was run: as §1

[31] = tested on: CAL-148; assay: as above
How it was run: as §1

[32] = tested on: MCF-10A; assay: as above
How it was run: as §1

[33] = tested on: MDA-MB-436; assay: as above
How it was run: as §1

[34] = tested on: MDA-MB-231; assay: as above
How it was run: as §1

[35] = tested on: CAL-51; assay: as above
How it was run: as §1

[36] = tested on: BT-474; assay: as above
How it was run: as §1

[37] = tested on: HCC1599; assay: as above
How it was run: as §1

COc1ccc(-c2cc3c(C)nc(N)nc3n([C@H]3CC[C@H](OCCO)CC3)c2=O)cn1 (100 nM) was tested, and the normalised response [1] was 66.3%, the normalised response [2] was 72.3% and the normalised response [3] was 83.2%. It also gave a normalised response [4] of 42%, a normalised response [5] of 68.9% and a normalised response [6] of 67.7%. It also gave a normalised response [7] of 73.7%, a normalised response [8] of 69.5% and a normalised response [9] of 55.7%. It also gave a normalised response [10] of 76.8%, a normalised response [11] of 68.8% and a normalised response [12] of 74.5%. The normalised response [13] was 74.5%, the normalised response [14] was 58% and the normalised response [15] was 77%. The normalised response [16] was 64.8%, the normalised response [17] was 53.4% and the normalised response [18] was 67.2%. For the same molecule, the normalised response [19] was 88.3%, the normalised response [20] was 88.6% and the normalised response [21] was 96.2%. The normalised response [22] was 96.2%, the normalised response [23] was 91.3% and the normalised response [24] was 95.7%. It also gave a normalised response [25] of 89.6%, a normalised response [26] of 112% and a normalised response [27] of 98.1%. The normalised response [28] was 66.1%, the normalised response [29] was 31% and the normalised response [30] was 107%. It also gave a normalised response [31] of 80.1%, a normalised response [32] of 85.6% and a normalised response [33] of 97.9%. For the same molecule, the normalised response [34] was 37.5%, the normalised response [35] was 85.1% and the normalised response [36] was 94.4%. For the same molecule, the normalised response [37] was 90.3%.
Molecule CC/C(=C(\c1ccc(O)cc1)c1ccc(OCCN(C)C)cc1)c1ccccc1 [4-hydroxytamoxifen] (100 nM) has a normalised response [1] of 95.9%, a normalised response [2] of 99.1% and a normalised response [3] of 104%. It also gave a normalised response [4] of 101%, a normalised response [5] of 105% and a normalised response [6] of 105%. For the same molecule, the normalised response [7] was 98%, the normalised response [8] was 107% and the normalised response [9] was 111%. It also gave a normalised response [10] of 96.2%, a normalised response [11] of 93.2% and a normalised response [12] of 95%. The normalised response [13] was 99.9%, the normalised response [14] was 106% and the normalised response [15] was 94.9%. For the same molecule, the normalised response [16] was 100%, the normalised response [17] was 99% and the normalised response [18] was 99.1%. For the same molecule, the normalised response [19] was 91.5%, the normalised response [20] was 87.3% and the normalised response [21] was 106%. The normalised response [22] was 108%, the normalised response [23] was 113% and the normalised response [24] was 98.8%. For the same molecule, the normalised response [25] was 50.3%, the normalised response [26] was 104% and the normalised response [27] was 111%. It also gave a normalised response [28] of 115%, a normalised response [29] of 106% and a normalised response [30] of 89.2%. It also gave a normalised response [31] of 99.1%, a normalised response [32] of 93% and a normalised response [33] of 108%. The normalised response [34] was 117%, the normalised response [35] was 98.1% and the normalised response [36] was 105%. The normalised response [37] was 114%.
O=C(Nc1c[nH]nc1-c1nc2ccc(CN3CCOCC3)cc2[nH]1)NC1CC1 [AT9283] (10 nM) was tested, and the normalised response [1] was 101%, the normalised response [2] was 98.2% and the normalised response [3] was 101%. The normalised response [4] was 93.5%, the normalised response [5] was 94.8% and the normalised response [6] was 103%. The normalised response [7] was 101%, the normalised response [8] was 94.1% and the normalised response [9] was 97.1%. The normalised response [10] was 109%, the normalised response [11] was 96.6% and the normalised response [12] was 98.1%. The normalised response [13] was 105%, the normalised response [14] was 96.9% and the normalised response [15] was 105%. For the same molecule, the normalised response [16] was 100%, the normalised response [17] was 67.3% and the normalised response [18] was 93.8%. The normalised response [19] was 95.2%, the normalised response [20] was 115% and the normalised response [21] was 53.1%. It also gave a normalised response [22] of 101%, a normalised response [23] of 102% and a normalised response [24] of 97.7%. For the same molecule, the normalised response [25] was 89.3%, the normalised response [26] was 105% and the normalised response [27] was 103%. For the same molecule, the normalised response [28] was 108%, the normalised response [30] was 123% and the normalised response [31] was 106%. For the same molecule, the normalised response [32] was 91.8%, the normalised response [33] was 103% and the normalised response [34] was 98.2%. For the same molecule, the normalised response [35] was 61.2%, the normalised response [36] was 102% and the normalised response [37] was 115%.
Molecule COc1cc(CCc2cc(NC(=O)c3ccc(N4CC(C)NC(C)C4)cc3)n[nH]2)cc(OC)c1 (configuration not stated) [AZD4547] (10 nM) has a normalised response [1] of 98.9%, a normalised response [2] of 70.8% and a normalised response [3] of 88.8%. For the same molecule, the normalised response [4] was 92.3%, the normalised response [5] was 103% and the normalised response [6] was 95.8%. The normalised response [7] was 89.8%, the normalised response [8] was 98.4% and the normalised response [9] was 95.7%. The normalised response [10] was 99.3%, the normalised response [11] was 98.3% and the normalised response [12] was 94.8%. The normalised response [13] was 99.5%, the normalised response [14] was 90.3% and the normalised response [15] was 105%. It also gave a normalised response [16] of 96.4%, a normalised response [17] of 111% and a normalised response [18] of 106%. The normalised response [19] was 104%, the normalised response [20] was 104% and the normalised response [21] was 92.8%. It also gave a normalised response [22] of 98.2%, a normalised response [23] of 99.2% and a normalised response [24] of 102%. The normalised response [25] was 103%, the normalised response [26] was 106% and the normalised response [27] was 104%. It also gave a normalised response [28] of 91.2%, a normalised response [29] of 158% and a normalised response [30] of 82.4%. For the same molecule, the normalised response [31] was 51.3%, the normalised response [32] was 79.9% and the normalised response [33] was 55.9%. For the same molecule, the normalised response [34] was 94.2%, the normalised response [35] was 95% and the normalised response [36] was 95.9%. It also gave a normalised response [37] of 93.9%.
